For one compound, Kp uu results are on record in patent publication US20220411422A1, “ERBB RECEPTOR INHIBITORS” (Dizal (Jiangsu) Pharmaceutical Co., Ltd., priority 2018, published 2022).

The data set is described as follows: Blood brain barrier penetration assay in monkeys. Particulars: CSF, oral; Table 5; monkey. Type of data set: in vivo. The protocol: In vitro blood, plasma and brain binding assay was carried out with equilibrium dialysis device. Diluted blood (1:1 with DPBS pH7.4), EDTA-anticoagulated plasma, and brain homogenate (1:3 with DPBS pH7.4) were spiked with 5 μM test compound (in triplicate) and dialyzed against equal volume of 150 μL 100 mM PBS buffer (pH7.4) at 37° C. for appropriate equilibration time in a slowly rotated plate. At the end of incubation, a 50 μL aliquot from the receiver side and a 5 μL from the donor chamber were taken. The 5 μL sample was further diluted with 45 μL of blank blood, plasma or brain homogenate. […] After centrifuging at 4000 rpm for 20 min, supernatant was diluted with 0.1% formic acid aqueous solution and analyzed for LC/MS/MS (API 4000, Applied Biosystems, Foster City). Unbound fraction (fu) of test compound were calculated by the ratio of the buffer side response to the brain homogenate/plasma/blood side response, and unbound fraction (fu,bl, fu,pl and fu,br) of test compound in non-diluted blood and tissue were calculated from measured fu in homogenate and diluted blood with the following equation: fu,bl (fu,br)=(1/D)/[(1/fu−1)+1/D)]. […]
Total brain levels, expressed as brain/blood ratio (Kp,brain) were measured by AUC(brain)/AUC(blood or plasma) in rodents after oral administration. […]
Kp,uu brain and Kp,uu CSF was calculated by the following equation: […]

Turning to `COc1cc(O[C@H]2CCN(C)CC2(F)F)c2c(Nc3ccc(Oc4ccn5ncnc5c4)c(C)c3)ncnc2c1` (single isomer, unassigned) [Compound 6], the Kp uu turned out to be 4.1.
